Assay [1] concerns the target T1, GST-tagged human Aurora B(AurB)/His-tagged human INCENP complex proteins (Homo sapiens, UniProt Q96GD4).
T1 construct: GST; purchased Carna Biosciences, Inc
Nature of the assay: Aurora B inhibitory activity (Method A, IMAP kit). It is filed as biochemical. Particulars: 40 μM ATP, 25° C., 45 minutes. The protocol: An assay development kit for IMAP (registered trademark) (Aurora B), purchased from Carna Biosciences, Inc., was used for phosphorylation reaction, and the phosphorylation of a substrate was detected using the IMAP technology. The assay development kit used is comprised of an assay buffer, GST-tagged human Aurora B(AurB)/His-tagged human INCENP complex proteins (amino acid sequence: 803-916, AAU04398.1), and an ATP/substrate solution. Using the same, the phosphorylation reaction was conducted in accordance with a partially revised protocol attached to the kit, and then the phosphorylation of the substrate was detected using the IMAP technology.
For the phosphorylation reaction, 384 well plate was used, and the reaction volume was 10 μl/well. The composition of the reaction buffer (assay buffer) is comprised of 20 mM of HEPES buffer (pH 7.4), 0.01% Tween-20, and 2 mM of dithiothreitol (DTT). Thereto, AurB/INCENP complex protein, 100 nM of the substrate, and 40 μM of ATP, and 1 mM of magnesium salt were added, and then the reaction was conducted at 25° C. for 45 minutes. Thereafter, in order to terminate and detect the reaction, 30 μl of the IMAP (registered trademark) binding reagent (IMAP Progressive Binding Reagent, R7284) that had been diluted (1:400) in the 1×IMAP binding buffer A (IMAP Progressive Binding Buffer A, 5× stock, R7282) was added to each well. The solution stood still for 60 minutes in the dark, and then fluorescence polarization was measured using a high-end microplate reader (excitation wavelength: 485 nm; emission wavelength: 520 nm).
The compound to be tested was added to the reaction system such that a dilution series of the compound in DMSO was prepared, and then 0.5 μL of this solution was added for the testing to each well. Each control well was provided by adding 0.5 μL of DMSO to the well in place of the DMSO solution containing the compound to be tested.

The target in assay [2] is T2, His-tagged human Aurora A (Homo sapiens, UniProt O14965).
T2 construct: His (N); made in house; host or cells: Escherichia coli BL21-CodonPlus(DE3)-RIL
T2 sequence (O14965 1-403): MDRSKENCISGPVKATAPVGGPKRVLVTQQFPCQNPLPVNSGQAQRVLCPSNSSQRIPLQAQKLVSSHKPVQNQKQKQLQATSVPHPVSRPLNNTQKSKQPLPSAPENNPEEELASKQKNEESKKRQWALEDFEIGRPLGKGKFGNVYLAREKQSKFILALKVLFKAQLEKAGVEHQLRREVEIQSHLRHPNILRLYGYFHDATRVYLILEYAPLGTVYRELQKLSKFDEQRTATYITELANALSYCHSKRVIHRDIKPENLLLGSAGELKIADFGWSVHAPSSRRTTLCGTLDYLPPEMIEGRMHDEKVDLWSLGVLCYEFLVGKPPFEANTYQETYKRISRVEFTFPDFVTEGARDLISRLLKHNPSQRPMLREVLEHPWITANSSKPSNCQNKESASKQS
The assay is described as follows: Aurora A inhibitory activity (IMAP fluorescence polarization). It is filed as biochemical. The note with it: 20 μM ATP, 30° C., 120 minutes. An excerpt: cDNA of N-terminal His-tagged human Aurora A was integrated into an expression vector, which was then highly expressed in Escherichia coli BL21-CodonPlus(DE3)-RIL cells. The Escherichia coli was harvested and lysed, and then the His-tagged human Aurora A protein was applied onto a nickel chelate column and eluted from the column with imidazole. The active fractions were desalted with a desalting column to give a purified enzyme.
For measurement of the activity of Aurora A, the substrate used was a synthetic peptide (5-FAM (5-carboxyfluorescein)-γ-aminobutyric acid-Ala-Leu-Arg-Arg-Ala-Ser-Leu-Gly-NH2) (SEQ.ID.NO.: 1), which was purchased from Toray Research Center, Inc.
For the phosphorylation reaction, the method by Upstate, Inc. [Kinase Profiler™ Assay Protocols] was referred to, and phosphorylation of the substrate was detected using IMAP® technology (Molecular Devices, Co. Ltd.) (Gaudet E W. et. al, J. Biomol. Screen, 8, 164-175 (2003)). Concretely, the phosphorylation reaction and the detection were carried out as follows:
The phosphorylation reaction was conducted using 384 well plate, and the reaction volume was 10 μl/well. The reaction buffer is comprised of 50 mM Tris-chloride buffer (pH 7.4), 15 mM magnesium acetate, and 0.2 mM ethylenediamine-N,N,N′,N′-tetraacetic acid (EDTA). Thereto, the purified Aurora A protein, 100 nM of the peptide substrate, and 20 μM of adenosine 5′-triphosphate (ATP) were added, and then the reaction was carried out at 30° C. for 120 minutes.
Thereafter, in order to terminate and detect the reaction, 30 μl of the IMAP (registered trademark) binding reagent (IMAP Progressive Binding Reagent, R7284) that had been diluted (1:400) in the 1×IMAP binding buffer A (IMAP Progressive Binding Buffer A, 5× stock, R7282) was added to each well. The solution stood still for 60 minutes in the dark, and then fluorescence polarization was measured using a high-end microplate reader (excitation wavelength: 485 nm; emission wavelength: 520 nm).
The compound to be tested was added to the reaction system such that a dilution series of the compound in dimethylsulfoxide (DMSO) was prepared, and then 0.5 μL of this solution was added for the testing to each well. Each control well was provided by adding 0.5 μL of DMSO to the well in place of the DMSO solution containing the compound to be tested.
(In general: In fluorescence polarisation assays a small probe gives low polarisation when free and higher when bound to something large.)

For assay [3], the system named is Human cervical cancer cells (HeLa S3). The assay is described as follows: Effect by combined use of drugs in cells (with docetaxel), WST-8 method. The note with it: docetaxel 0.3 nM alone, HeLa S3, three days, DMSO = 0%. In kind it is cell-based. The protocol: Fetal calf serum (FCS) was purchased from Moregate Biotech, DMEM medium from Invitrogen Corp., docetaxel (tradename: Taxere) from Sigma-Aldrich, Inc., and WST-8 from Kishida Chemical Co., Ltd.
Human cervical cancer cells (HeLa S3) were obtained from the American Type Culture Collection (ATCC).
Cells were suspended in a DMEM medium containing 10% FCS, and the cell suspension was dispensed to two 96-well plastic plates at a rate of 750 cells/100 microliters per well. The plates were incubated overnight in 5% CO2-95% air at 37° C. A drug was subjected to graded dilution in dimethylsulfoxide and further diluted with DMSO or with a DMEM medium containing 10% FCS and also containing 0.6 nM docetaxel. Then, the dilutions were each dispensed to one of the plates on which cells had been disseminated, at a rate of 100 microliters per well. The final concentration of docetaxel at this stage was 0.3 nM. Also, the concentrations in the case of sole administration of the compound according to the invention were 0.003, 0.01, 0.03, 0.1, 0.3, 1, 3 and 10 μM. The plates were incubated for further three days in 5% CO2-95% air at 37° C. Cell growth after incubation was measured by the WST-8 method (H. Tominaga, et al., Anal. Commun., 36, 47-50 (1999)). Here, the WST-8 method refers to a method in which 20 microliters of a WST-8 reagent solution is added to each well, incubation is conducted at 37° C. for 60 minutes, the plate is stirred, and the amount of formazan produced is measured by a colorimetric method to determine the inhibitory rate of the drug. The growth inhibitory effects of docetaxel and of the compound according to the invention were determined, with the value obtained in sole treatment of DMSO being defined as 0%.

The record followed here is US8519136B2, “Aminopyridine derivatives having aurora a selective inhibitory action” (MSD K.K., priority 2008, dated 2013).

By IC50 is commonly meant the concentration that inhibits the measured activity by half. A high value points to lower potency.

Where a name gives a salt, the structure may show the parent alone.

T1 sequence (Q96GD4 whole entry): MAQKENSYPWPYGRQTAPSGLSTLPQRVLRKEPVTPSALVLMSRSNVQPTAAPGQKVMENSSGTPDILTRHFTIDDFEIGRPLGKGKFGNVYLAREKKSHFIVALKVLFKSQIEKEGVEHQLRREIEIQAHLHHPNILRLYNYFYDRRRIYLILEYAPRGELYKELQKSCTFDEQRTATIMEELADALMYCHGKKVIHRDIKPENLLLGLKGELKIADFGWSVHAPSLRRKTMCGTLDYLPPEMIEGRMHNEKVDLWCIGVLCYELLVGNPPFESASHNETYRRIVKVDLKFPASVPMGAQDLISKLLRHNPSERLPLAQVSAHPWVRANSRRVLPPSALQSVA
T1 sequence (Q9NQS7 803-916 partner limits assumed): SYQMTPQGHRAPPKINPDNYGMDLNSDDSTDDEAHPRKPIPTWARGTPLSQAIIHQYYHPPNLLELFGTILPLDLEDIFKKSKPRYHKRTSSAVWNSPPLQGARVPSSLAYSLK

Regarding `Cc1cc(Nc2cc[nH]n2)nc(CC2CCN(C(=O)c3cccc(Cl)c3F)CC2)n1` [Example 3, 2-((1-(3-chloro-2-fluorobenzoyl)piperidin-4-yl)methyl)-6-methyl-N-1H-pyrazol-3-ylpyrimidin-4-amine trifluoroacetate], the values for the IC50 in assay [1] and in assay [2] were 400 nM and 1.6 nM, respectively.

Regarding `CCOC(=O)C1(Cc2cccc(Nc3cc[nH]n3)n2)CCN(C(=O)c2cccc(Cl)c2F)CC1` [Example 4, ethyl 1-(3-chloro-2-fluorobenzoyl)-4-((6-(1H-pyrazol-3-ylamino)pyridin-2-yl)methyl)piperidine-4-carboxylate], the figures for the half-inhibitory concentration (IC50) in assay [1] and in assay [2] were over 1000 nM and 1.14 nM, respectively.

`CCOC(=O)C1(Cc2cccc(Nc3cc[nH]n3)n2)CCN(C(=O)c2cccc(C(F)(F)F)c2F)CC1` [Example 5, ethyl 1-(2-fluoro-3-(trifluoromethyl)benzoyl)-4-((6-(1H-pyrazol-3-ylamino)pyridin-2-yl)methyl)piperidine-4-carboxylate]: the IC50 in assay [1] is 555 nM; in assay [2] it was 0.63 nM.

As for `NC(=O)C1(Cc2cccc(Nc3cc[nH]n3)n2)CCN(C(=O)c2cccc(Cl)c2F)CC1` [Example 6, 1-(3-chloro-2-fluorobenzoyl)-4-((6-(1H-pyrazol-3-ylamino)pyridin-2-yl)methyl)piperidine-4-carboxamide], the IC50 in assay [1] was over 1000 nM; in assay [2], 1.57 nM.

For `NC(=O)C1(Cc2cccc(Nc3cc[nH]n3)n2)CCN(C(=O)c2cccc(C(F)(F)F)c2F)CC1` [Example 7, 1-(2-fluoro-3-(trifluoromethyl)benzoyl)-4-((6-(1H-pyrazol-3-ylamino)pyridin-2-yl)methyl)piperidine-4-carboxamide], the IC50 in assay [1] turned out to be 135 nM; in assay [2], 0.61 nM.

With `CONC(=O)C1(Cc2cccc(Nc3cc[nH]n3)n2)CCN(C(=O)c2cccc(C(F)(F)F)c2F)CC1` [Example 8, 1-(2-fluoro-3-(trifluoromethyl)benzoyl)-N-methoxy-4-((6-(1H-pyrazol-3-ylamino)pyridin-2-yl)methyl)piperidine-4-carboxamide], the IC50 came out at 555 nM in assay [1] and 0.79 nM in assay [2].

Consider `O=C(c1cccc(F)c1F)N1CCC(Cc2cccc(Nc3cc[nH]n3)n2)(c2n[nH]c(=O)o2)CC1` [Example 11, 5-(1-(2,3-difluorobenzoyl)-4-((6-(1H-pyrazol-3-ylamino)pyridin-2-yl)methyl)piperidin-4-yl)-1,3,4-oxadiazol-2(3H)-one trifluoroacetate], for which the half-inhibitory concentration (IC50) came out at 236 nM in assay [1] and 0.26 nM in assay [2].

Regarding `O=c1[nH]nc(C2(Cc3cccc(Nc4cc[nH]n4)n3)CCN(S(=O)(=O)c3cccc(Cl)c3Cl)CC2)o1` [Example 13, 5-(1((2,3-dichlorophenyl)sulfonyl)-4((6-(1H-pyrazol-3-ylamino)pyridin-2-yl)methyl)piperidin-4-yl)-1,3,4-oxadiazol-2(3H)-one trifluoroacetate], the IC50 amounted to 609 nM in assay [1] and 2.55 nM in assay [2].

`Cc1cc(Nc2cccc(CC3(c4n[nH]c(=O)o4)CCN(C(=O)c4cccc(Cl)c4F)CC3)n2)n[nH]1` [Example 15, 5-(1-(3-chloro-2-fluorobenzoyl)-4-((6-((5-methyl-1H-pyrazol-3-yl)amino)pyridin-2-yl)methyl)piperidin-4-yl)-1,3,4-oxadiazol-2(3H)-one]: the IC50 in assay [1] turned out to be 77.5 nM; in assay [2] it was 0.25 nM.

On to `Cc1cc(Nc2cccc(CC3(c4n[nH]c(=O)o4)CCN(C(=O)c4cccc(F)c4F)CC3)n2)n[nH]1` [Example 16, 5-(1-(2,3-difluorobenzoyl)-4-((6-((5-methyl-1H-pyrazol-3-yl)amino)pyridin-2-yl)methyl)piperidin-4-yl)-1,3,4-oxadiazol-2(3H)-one], for which the values for the IC50 in assay [1] and in assay [2] were 157 nM and 0.41 nM, respectively.

Consider `Cc1cc(Nc2cc[nH]n2)nc(CC2(C(N)=O)CCN(C(=O)c3cccc(Cl)c3F)CC2)n1` [Example 18, 1-(3-chloro-2-fluorobenzoyl)-4-((4-methyl-6-(1H-pyrazol-3-ylamino)pyrimidin-2-yl)methyl)piperidine-4-carboxamide trifluoroacetate], for which the IC50 in assay [1] is over 1000 nM; in assay [2], 1.23 nM.

`CC(=O)O[C@@]12CO[C@@H]1C[C@H](O)[C@@]1(C)C(=O)[C@H](O)C3=C(C)[C@@H](OC(=O)[C@H](O)[C@@H](NC(=O)OC(C)(C)C)c4ccccc4)C[C@@](O)([C@@H](OC(=O)c4ccccc4)[C@H]21)C3(C)C` [docetaxel, reference compound]: the inhibition at 0.0003 µM in assay [3] (Homo sapiens, HeLa S3, 72 h, read-out: Cell growth inhibitory effect by sole administration of docetaxel (0.3 nM) (%)) is 49.6%. For the same molecule, in assay [3], the “Cell growth inhibitory effect by sole administration of docetaxel (0.3 nM) (%)” value is given as 51.6%.
